Common to all, as to assay: tetrapeptide-ACC substrate cleavage kinetics
What all share (format): biochemical

The target in assay [1] is human caspase-8 (Homo sapiens, UniProt Q14790). Conditions: Ac-P4-P3-P2-Asp-ACC substrate, 0.05-500 μM, 6-42 nM enzyme, 37°C, triplicate.
The target in assay [2] is T1, human caspase-9 (Homo sapiens, UniProt P55211).
T1 sequence (P55211 1-315 limits assumed): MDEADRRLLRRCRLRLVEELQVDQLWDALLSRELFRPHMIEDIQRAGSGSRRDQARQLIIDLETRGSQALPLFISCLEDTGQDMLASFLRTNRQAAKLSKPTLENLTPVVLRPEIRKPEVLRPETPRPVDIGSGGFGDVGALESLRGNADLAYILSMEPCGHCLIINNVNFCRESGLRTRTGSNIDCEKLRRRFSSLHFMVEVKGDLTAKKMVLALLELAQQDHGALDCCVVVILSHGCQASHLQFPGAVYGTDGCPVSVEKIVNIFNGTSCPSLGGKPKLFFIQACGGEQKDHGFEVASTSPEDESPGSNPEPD
T1 sequence (P55211 331-416 limits assumed): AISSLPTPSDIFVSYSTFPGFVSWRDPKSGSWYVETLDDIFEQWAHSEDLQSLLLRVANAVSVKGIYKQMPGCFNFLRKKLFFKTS
The conditions noted are these: Ac-P4-P3-P2-Asp-ACC substrate, 0.05-500 μM, 20-150 nM enzyme, 37°C, triplicate.

Assay [3] has as its target T2, human caspase-4 (Homo sapiens, UniProt P49662).
T2 sequence (P49662 81-270 limits assumed): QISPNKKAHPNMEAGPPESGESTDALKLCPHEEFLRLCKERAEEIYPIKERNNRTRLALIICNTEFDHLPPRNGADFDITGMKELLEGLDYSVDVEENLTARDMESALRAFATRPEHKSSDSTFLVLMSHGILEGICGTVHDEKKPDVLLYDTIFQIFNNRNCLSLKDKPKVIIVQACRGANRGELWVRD
T2 sequence (P49662 290-377 limits assumed): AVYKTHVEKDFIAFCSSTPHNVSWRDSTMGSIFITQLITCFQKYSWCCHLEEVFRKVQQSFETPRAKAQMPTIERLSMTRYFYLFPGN
Conditions: Ac-P4-P3-P2-Asp-ACC substrate, 0.05-500 μM, 35-200 nM enzyme, 37°C, triplicate.

Assay [4] has as its target T3, human caspase-7 (Homo sapiens, UniProt P55210).
T3 sequence (P55210 24-198 limits assumed): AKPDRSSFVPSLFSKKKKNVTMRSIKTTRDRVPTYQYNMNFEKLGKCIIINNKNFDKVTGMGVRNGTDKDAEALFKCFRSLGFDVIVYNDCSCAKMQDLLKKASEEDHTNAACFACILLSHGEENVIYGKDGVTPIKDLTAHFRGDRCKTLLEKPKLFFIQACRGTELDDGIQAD
T3 sequence (P55210 207-303 limits assumed): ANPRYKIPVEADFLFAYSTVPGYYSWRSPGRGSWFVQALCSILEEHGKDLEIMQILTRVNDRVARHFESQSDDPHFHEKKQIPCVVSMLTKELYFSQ
Conditions: Ac-P4-P3-P2-Asp-ACC substrate, 0.05-500 μM, 40-400 nM enzyme, 37°C, triplicate.

Assay [5] addresses T4, human caspase-5 (Homo sapiens, UniProt P51878).
T4 sequence (P51878 137-327 limits assumed): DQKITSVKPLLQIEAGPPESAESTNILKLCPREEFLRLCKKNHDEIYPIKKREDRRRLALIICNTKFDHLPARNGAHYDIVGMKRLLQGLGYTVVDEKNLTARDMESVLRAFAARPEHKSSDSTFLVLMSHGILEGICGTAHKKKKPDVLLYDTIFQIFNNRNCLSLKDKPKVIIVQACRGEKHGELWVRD
T4 sequence (P51878 347-434 limits assumed): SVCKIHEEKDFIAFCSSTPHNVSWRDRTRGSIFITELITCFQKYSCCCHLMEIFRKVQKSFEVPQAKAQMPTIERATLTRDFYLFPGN
Conditions: Ac-P4-P3-P2-Asp-ACC substrate, 0.05-500 μM, 20-250 nM enzyme, 37°C, triplicate.

Assay [6] has as its target T5, human caspase-3 (Homo sapiens, UniProt P42574).
T5 sequence (P42574 29-175 limits assumed): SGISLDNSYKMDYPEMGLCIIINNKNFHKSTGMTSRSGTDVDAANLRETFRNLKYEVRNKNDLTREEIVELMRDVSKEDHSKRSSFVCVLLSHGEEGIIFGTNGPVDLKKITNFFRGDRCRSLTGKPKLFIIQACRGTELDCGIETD
T5 sequence (P42574 176-277 limits assumed): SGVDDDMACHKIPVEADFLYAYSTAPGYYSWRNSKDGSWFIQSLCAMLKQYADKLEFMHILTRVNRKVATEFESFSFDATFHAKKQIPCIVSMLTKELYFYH
The conditions noted are these: Ac-P4-P3-P2-Asp-ACC substrate, 0.05-500 μM, 3-35 nM enzyme, 37°C, triplicate.

Assay [7] addresses T6, human caspase-1 (Homo sapiens, UniProt P29466).
T6 sequence (P29466 120-297 limits assumed): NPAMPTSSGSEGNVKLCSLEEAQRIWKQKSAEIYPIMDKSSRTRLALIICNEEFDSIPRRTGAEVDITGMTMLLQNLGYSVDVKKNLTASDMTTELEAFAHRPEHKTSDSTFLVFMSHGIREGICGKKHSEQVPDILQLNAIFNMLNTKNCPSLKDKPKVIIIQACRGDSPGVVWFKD
T6 sequence (P29466 317-404 limits assumed): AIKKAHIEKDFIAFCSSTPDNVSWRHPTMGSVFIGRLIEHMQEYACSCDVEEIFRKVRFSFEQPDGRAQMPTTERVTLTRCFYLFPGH
Conditions: Ac-P4-P3-P2-Asp-ACC substrate, 0.05-500 μM, 2-15 nM enzyme, 37°C, triplicate.

Non-standard residues stand in square brackets, D forms with d. No end group written: not given here. *: point of attachment. Phe(2-Cl) = N[C@@H](Cc1ccccc1Cl)C(=O)O; Hyp = O=C(O)[C@@H]1C[C@@H](O)CN1; Tic = O=C(O)[C@@H]1Cc2ccccc2CN1; Phg = N[C@H](C(=O)O)c1ccccc1; Tle = CC(C)(C)[C@H](N)C(=O)O; Bn = c1ccc(C*)cc1

The text below walks through data of publication doi:10.1101/2025.02.11.637513v1 (bioRxiv, 2025).

Chain of human caspase-8 (Q14790 217-374 limits assumed): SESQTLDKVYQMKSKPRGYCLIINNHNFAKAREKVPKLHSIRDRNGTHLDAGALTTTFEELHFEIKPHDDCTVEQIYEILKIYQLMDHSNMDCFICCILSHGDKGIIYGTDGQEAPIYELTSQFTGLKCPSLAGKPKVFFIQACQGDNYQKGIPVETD
Chain of human caspase-8 (Q14790 385-479 limits assumed): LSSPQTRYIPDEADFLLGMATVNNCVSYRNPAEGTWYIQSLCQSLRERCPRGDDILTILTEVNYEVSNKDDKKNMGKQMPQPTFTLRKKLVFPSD

In the case of [Phe(2-Cl)]E[Tic]D, the “kcat/KM caspase-8” value in assay [1] is 13 980 M^-1s^-1. Moreover, in assay [2], the “kcat/KM caspase-9” value was 5 410 M^-1s^-1. In assay [3], the “kcat/KM caspase-4” value was 15 180 M^-1s^-1. In addition, the “kcat/KM caspase-7” value in assay [4] is 10 040 M^-1s^-1. Besides, in assay [5], the “kcat/KM caspase-5” value is on record as 16 790 M^-1s^-1. Besides, the “kcat/KM caspase-3” value in assay [6] is reported as 75 860 M^-1s^-1. Further, the “kcat/KM caspase-1” value in assay [7] was 243 800 M^-1s^-1.
With Tyr-Thr-Ile-Asp, the “kcat/KM caspase-8” value in assay [1] was 3 260 M^-1s^-1. In addition, the “kcat/KM caspase-9” value in assay [2] came out at 280 M⁻¹ s⁻¹. The “kcat/KM caspase-4” value in assay [3] turned out to be 510 M⁻¹ s⁻¹. The “kcat/KM caspase-7” value in assay [4] is reported as 1 440 M^-1s^-1. Besides, the “kcat/KM caspase-5” value in assay [5] is 810 M⁻¹ s⁻¹. In addition, the “kcat/KM caspase-3” value in assay [6] is on record as 9 750 M^-1s^-1. Also, in assay [7], the “kcat/KM caspase-1” value was 48 100 M^-1s^-1.
On to Pro-Tyr-His-Asp, for which the “kcat/KM caspase-8” value in assay [1] was 4 490 M^-1s^-1. For the same substance, the “kcat/KM caspase-9” value in assay [2] is recorded as 11 080 M^-1s^-1. Also, the “kcat/KM caspase-4” value in assay [3] turned out to be 330 M⁻¹ s⁻¹. The “kcat/KM caspase-7” value in assay [4] is 90 M⁻¹ s⁻¹. In addition, the “kcat/KM caspase-5” value in assay [5] is 1 110 M^-1s^-1. The “kcat/KM caspase-3” value in assay [6] is 2 110 M^-1s^-1. Also, in assay [7], the “kcat/KM caspase-1” value is on record as 10 900 M^-1s^-1.
For the substance Phe-Leu-Thr-Asp, the “kcat/KM caspase-8” value in assay [1] was 3 050 M^-1s^-1. Moreover, in assay [2], the “kcat/KM caspase-9” value amounted to 460 M⁻¹ s⁻¹. The “kcat/KM caspase-4” value in assay [3] came out at 450 M⁻¹ s⁻¹. In assay [4], the “kcat/KM caspase-7” value was 450 M⁻¹ s⁻¹. In assay [5], the “kcat/KM caspase-5” value is 1 190 M^-1s^-1. The “kcat/KM caspase-3” value in assay [6] is on record as 3 490 M^-1s^-1. The “kcat/KM caspase-1” value in assay [7] is listed as 50 000 M^-1s^-1.
With Trp-Glu-His-Asp, the “kcat/KM caspase-8” value in assay [1] is 14 900 M^-1s^-1. Further, in assay [2], the “kcat/KM caspase-9” value is on record as 8 500 M^-1s^-1. Also, the “kcat/KM caspase-4” value in assay [3] is listed as 18 000 M^-1s^-1. For the same substance, the “kcat/KM caspase-7” value in assay [4] was 410 M⁻¹ s⁻¹. In assay [5], the “kcat/KM caspase-5” value is given as 26 800 M^-1s^-1. The “kcat/KM caspase-3” value in assay [6] is reported as 8 970 M^-1s^-1. The “kcat/KM caspase-1” value in assay [7] is reported as 552 400 M^-1s^-1.
As to V[Hyp](Bn)HD, the “kcat/KM caspase-8” value in assay [1] is reported as 3 260 M^-1s^-1. In addition, the “kcat/KM caspase-9” value in assay [2] came to 660 M⁻¹ s⁻¹. Besides, the “kcat/KM caspase-4” value in assay [3] is below 10 M⁻¹ s⁻¹. The “kcat/KM caspase-7” value in assay [4] was found to be 10 M⁻¹ s⁻¹. Besides, the “kcat/KM caspase-5” value in assay [5] was below 10 M⁻¹ s⁻¹. Besides, in assay [6], the “kcat/KM caspase-3” value amounted to 510 M⁻¹ s⁻¹. Further, the “kcat/KM caspase-1” value in assay [7] was below 10 M⁻¹ s⁻¹.
With [Tle][Phg]HD, the “kcat/KM caspase-8” value in assay [1] is recorded as 2 030 M^-1s^-1. Moreover, the “kcat/KM caspase-9” value in assay [2] is listed as 9 870 M^-1s^-1. The “kcat/KM caspase-4” value in assay [3] was 320 M⁻¹ s⁻¹. Moreover, the “kcat/KM caspase-7” value in assay [4] stood at 40 M⁻¹ s⁻¹. Further, the “kcat/KM caspase-5” value in assay [5] turned out to be 490 M⁻¹ s⁻¹. In assay [6], the “kcat/KM caspase-3” value was 6 710 M^-1s^-1. Also, the “kcat/KM caspase-1” value in assay [7] is listed as 4 300 M^-1s^-1.
As for WT(Bn)HD, the “kcat/KM caspase-8” value in assay [1] was 8 230 M^-1s^-1. In assay [2], the “kcat/KM caspase-9” value is given as 11 220 M^-1s^-1. In addition, the “kcat/KM caspase-4” value in assay [3] is 6 010 M^-1s^-1. Also, the “kcat/KM caspase-7” value in assay [4] amounted to 120 M⁻¹ s⁻¹. For the same substance, in assay [5], the “kcat/KM caspase-5” value is 10 640 M^-1s^-1. Further, the “kcat/KM caspase-3” value in assay [6] was 2 760 M^-1s^-1. Besides, the “kcat/KM caspase-1” value in assay [7] is on record as 644 300 M^-1s^-1.
Pro-Met-His-Asp: the “kcat/KM caspase-8” value in assay [1] is given as 3 570 M^-1s^-1. For the same substance, the “kcat/KM caspase-9” value in assay [2] is 13 000 M^-1s^-1. For the same substance, the “kcat/KM caspase-4” value in assay [3] came out at 460 M⁻¹ s⁻¹. Also, the “kcat/KM caspase-7” value in assay [4] was determined as 100 M⁻¹ s⁻¹. In addition, in assay [5], the “kcat/KM caspase-5” value is 130 M⁻¹ s⁻¹. Also, the “kcat/KM caspase-3” value in assay [6] was 3 160 M^-1s^-1. Besides, in assay [7], the “kcat/KM caspase-1” value is reported as 13 200 M^-1s^-1.
